Each structure is given as a SMILES string.

The target of the first assay is T1, nonphosphorylated Abl kinase (Homo sapiens, UniProt P00519).
T1 construct: purchased deCode Abl-2
T1 sequence (P00519 whole entry): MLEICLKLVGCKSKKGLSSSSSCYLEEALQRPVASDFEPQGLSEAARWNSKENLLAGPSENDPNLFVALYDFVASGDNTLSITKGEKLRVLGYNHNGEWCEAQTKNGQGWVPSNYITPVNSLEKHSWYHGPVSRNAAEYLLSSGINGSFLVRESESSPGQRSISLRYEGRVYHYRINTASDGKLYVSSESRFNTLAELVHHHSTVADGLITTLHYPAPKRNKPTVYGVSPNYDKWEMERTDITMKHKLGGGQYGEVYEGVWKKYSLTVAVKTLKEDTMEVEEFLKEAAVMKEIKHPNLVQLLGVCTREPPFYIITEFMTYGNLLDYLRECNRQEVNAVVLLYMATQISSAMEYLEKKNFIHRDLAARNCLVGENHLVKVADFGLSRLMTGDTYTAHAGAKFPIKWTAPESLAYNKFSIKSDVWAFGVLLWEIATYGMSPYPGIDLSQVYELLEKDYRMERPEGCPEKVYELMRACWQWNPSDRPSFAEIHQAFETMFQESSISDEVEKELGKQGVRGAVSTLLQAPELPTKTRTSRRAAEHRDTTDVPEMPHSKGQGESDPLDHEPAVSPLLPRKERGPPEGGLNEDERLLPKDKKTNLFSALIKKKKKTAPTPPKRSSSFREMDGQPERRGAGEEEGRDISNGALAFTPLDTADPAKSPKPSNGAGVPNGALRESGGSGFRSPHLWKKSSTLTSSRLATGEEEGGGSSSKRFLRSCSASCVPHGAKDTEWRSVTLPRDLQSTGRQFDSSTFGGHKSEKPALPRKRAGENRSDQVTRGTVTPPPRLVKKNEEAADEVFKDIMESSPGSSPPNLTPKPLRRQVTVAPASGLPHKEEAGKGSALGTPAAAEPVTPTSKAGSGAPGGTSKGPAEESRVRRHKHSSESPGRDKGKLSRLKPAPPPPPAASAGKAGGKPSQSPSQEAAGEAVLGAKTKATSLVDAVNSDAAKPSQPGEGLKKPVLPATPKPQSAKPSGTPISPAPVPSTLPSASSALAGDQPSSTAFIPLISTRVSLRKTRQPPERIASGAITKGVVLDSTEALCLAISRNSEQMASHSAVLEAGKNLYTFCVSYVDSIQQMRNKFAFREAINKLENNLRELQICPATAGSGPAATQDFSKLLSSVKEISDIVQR
In words: Abl kinase assay (continuous spectrophotometric, pyruvate kinase/lactate dehydrogenase coupled). Type of assay: biochemical.
Settings: not given
How it is done:
A continuous spectrophotometric kinase assay is used, wherein the production of adenosine diphosphate is coupled to the oxidation of NADH and measured as a reduction in absorbance at 340 nm. For details see: Barker, S. C. et al, Biochemistry (1995) 34:14843; and Schindler, T. et al, Science (2000) 289:1938.
The reaction mixture (200 μl) contained Abl kinase (3.7 nM. Abl-2 from deCode), peptide substrate ([…], 0.5 mM), ATP (0.5 mM), MgCl2 (5 mM), pyruvate kinase (16 units), lactate dehydrogenase (26 units), phosphoenol pyruvate (1 mM), and NADH (0.28 mM) in 100 mM Tris buffer, pH 7.5. The reaction was initiated by adding ATP. The absorption at 340 nm was monitored continuously for 3 to 4 hours at 30° C. on Polarstar Optima plate reader (BMG). Under these conditions, a turn over number (kcat) of 1.4 s^−1 was obtained for the preparation of Abl kinase, which is similar to that (1.7 s^−1) reported for the nonphosphorylated enzyme (Brasher and Van Etten, JBC (2000) 275, 35631-35637). No autophosphorylation of Abl was observed under these conditions since the rate is constant throughout the entire reaction time and presumably because the concentration of the enzyme used is below the critical level (˜10 nM) needed for the autophosphorylation (Brasher and Van Etten, JBC (2000) 275, 35631-35637).
Percentage of inhibition in the presence of an inhibitor was obtained by comparison of reaction rate (or slope) with that of a control. IC50 value was calculated from a series of % inhibition values determined at a range of concentrations of the inhibitor using Prism.
A word on the IC50: it is the concentration at which inhibition is half-maximal. Read a low IC50 as greater potency in that assay. In turn, `Cc1ccc(NC(=O)c2ccc(C(=O)N3C(=O)OC[C@H]3c3ccccc3)cc2)cc1Nc1nccc(-c2cccnc2)n1` [Example 18, D-4-(2-oxo-4-phenyl-oxazolidine-3-carbonyl)-N-[4-methyl-3-(4-pyridin-3-yl-pyrimidin-2-ylamino)-phenyl]benzamide] gave an IC50 of 3 µM.

The compound `Cc1ccc(NC(=O)c2ccc(C(=O)N3C(=O)OC[C@@H]3c3ccccc3)cc2)cc1Nc1nccc(-c2cccnc2)n1` [Example 19, L-4-(2-oxo-4-phenyl-oxazolidine-3-carbonyl)-N-[4-methyl-3-(4-pyridin-3-yl-pyrimidin-2-ylamino)-phenyl]benzamide] registered a half-maximal inhibitory concentration (IC50) of 4 µM.

Staying with this assay, now noted: read-out: % Inhi @ 10 uM.
`Cc1ccc(NC(=O)c2ccc(C(=O)N3C(=O)OC[C@H]3c3ccccc3)cc2)cc1Nc1nccc(-c2ccccc2)n1` [Example 16, D-4-(2-oxo-4-phenyl-oxazolidine-3-carbonyl)-N-(4-methyl-3-(4-phenylpyrimidin-2-ylamino)phenyl)benzamide]: the inhibition at 10 µM amounted to 9%.

Consider `Cc1ccc(NC(=O)c2ccc(CNS(=O)(=O)NC(=O)N3CCCC3)cc2)cc1Nc1nccc(-c2ccccc2)n1` [Example 1], for which the inhibition at 10 µM was determined as 10%.

`Cc1ccc(NC(=O)c2ccc(CN3CC(=O)N(C)C3=O)cc2)cc1Nc1nccc(-c2ccccc2)n1` [Example 6, N-(3-(4-phenylpyrimidin-2-ylamino)-4-methylphenyl)-4-((3-methyl-2,4-dioxoimidazolidin-1-yl)methyl)benzamide]: the inhibition at 10 µM came out at 13%.

Consider `Cc1ccc(NC(=O)c2ccc(CN3CCS(=O)(=O)CC3)cc2)cc1Nc1ncccn1` [Example 13, 4-(((4,4-dioxothiomorpholinomethyl)1)methyl)-N-(4-methyl-3-(pyrimidin-2-ylamino)phenyl)benzamide], for which the inhibition at 10 µM came to 31%.

Regarding `CNC(=O)CN(CC(=O)NC)C(=O)c1ccc(C(=O)Nc2ccc(C)c(Nc3ncccn3)c2)cc1` [Example 7, N^1,N^1-bis((methylcarbamoyl)methyl)-N^4-(4-methyl-3-(pyrimidin-2-ylamino)phenyl)terephthalamide], the inhibition at 10 µM worked out at 9%.

On to `Cc1ccc(NC(=O)c2ccc(CNS(=O)(=O)NC(=O)N3CCCC3)cc2)cc1Nc1ncccn1` [Example 2], for which the inhibition at 10 µM turned out to be 9%.

For the compound `Cc1ccc(NC(=O)c2ccc(C(=O)N3C(=O)OC[C@H]3c3ccccc3)cc2)cc1Nc1nccc(-c2cccnc2)n1` [Example 18, D-4-(2-oxo-4-phenyl-oxazolidine-3-carbonyl)-N-[4-methyl-3-(4-pyridin-3-yl-pyrimidin-2-ylamino)-phenyl]benzamide], the inhibition at 10 µM stood at 70%.

On to `CNC(=O)CN(CC(=O)NC)C(=O)c1ccc(C(=O)Nc2ccc(C)c(Nc3nccc(-c4ccccc4)n3)c2)cc1` [Example 8, N^1,N^1-bis((methylcarbamoyl)methyl)-N^4-(3-(4-phenylpyrimidin-2-ylamino)4-methylphenyl)terephthalamide], for which the inhibition at 10 µM amounted to 20%.

With `Cc1ccc(NC(=O)c2ccc(CNC(=O)NS(=O)(=O)N3CCCC3)cc2)cc1Nc1nccc(-c2ccccc2)n1` [Example 3], the inhibition at 10 µM was found to be 15%.

Consider `Cc1ccc(NC(=O)c2ccc(CN3CC(=O)N(C)C3=O)cc2)cc1Nc1ncccn1` [Example 5, 4-((3-methyl-2,4-dioxoimidazolidin-1-yl)methyl)-N-(4-methyl-3-(pyrimidin-2-ylamino)phenyl)benzamide], for which the inhibition at 10 µM was found to be 9%.

As to `Cc1ccc(NC(=O)c2ccc(C(=O)N3C(=O)OC[C@@H]3c3ccccc3)cc2)cc1Nc1nccc(-c2cccnc2)n1` [Example 19, L-4-(2-oxo-4-phenyl-oxazolidine-3-carbonyl)-N-[4-methyl-3-(4-pyridin-3-yl-pyrimidin-2-ylamino)-phenyl]benzamide], the inhibition at 10 µM came to 75%.

Consider `Cc1ccc(NC(=O)c2ccc(CN3CCS(=O)(=O)CC3)cc2)cc1Nc1nccc(N2CCOCC2)n1` [Example 15, 4-(((4,4-dioxothiomorpholinomethyl)1)methyl)-N-(4-methyl-3-(4-morpholinopyrimidin-2-ylamino)phenyl)benzamide], for which the inhibition at 10 µM came to 7%.

On to `Cc1ccc(NC(=O)c2ccc(C(=O)N3C(=O)OC[C@@H]3c3ccccc3)cc2)cc1Nc1nccc(-c2ccccc2)n1` [Example 17, L-4-(2-oxo-4-phenyl-oxazolidine-3-carbonyl)-N-(4-methyl-3-(4-phenylpyrimidin-2-ylamino)phenyl)benzamide], for which the inhibition at 10 µM stood at 18%.

Take `Cc1ccc(NC(=O)c2ccc(CN3CC(=O)NS3(=O)=O)cc2)cc1Nc1nccc(-c2ccccc2)n1` [Example 23]: the inhibition at 10 µM stood at 10%.

With `Cc1ccc(NC(=O)c2ccc(CN3CC(=O)NS3(=O)=O)cc2)cc1Nc1nccc(-c2cccnc2)n1` [Example 10], the inhibition at 10 µM is 16%.

For `Cc1ccc(NC(=O)c2ccc(Cn3c(=O)[nH]n(C)c3=O)cc2)cc1Nc1ncccn1` [Example 21, 4-((1-methyl-3,5-dioxo-1,2,4-triazolidin-4-yl)methyl)-N-(4-methyl-3-(pyrimidin-2-ylamino)phenyl)benzamide], the inhibition at 10 µM came to 12%.

In the case of `Cc1ccc(NC(=O)c2ccc(CN3C(=O)CNS3(=O)=O)cc2)cc1Nc1nccc(-c2ccccc2)n1` [Example 12, N-[4-Methyl-3-(4-phenyl-pyrimidin-2-ylamino)-phenyl]-4-(1,1,3-trioxo-[1,2,5]thiadiazolidin-2-ylmethyl)-benzamide], the inhibition at 10 µM is 52%.

Consider `Cc1ccc(NC(=O)c2ccc(CNC(=O)NS(=O)(=O)N3CCCC3)cc2)cc1Nc1ncccn1` [Example 4], for which the inhibition at 10 µM came out at 24%.

As to `Cc1ccc(NC(=O)c2ccc(Cn3sc(=O)n(-c4ccccc4)c3=O)cc2)cc1Nc1nccc(-c2ccccc2)n1` [Example 9, N-(3-(4-phenylpyrimidin-2-ylamino)-4-methylphenyl)-4-((3,5-dioxo-4-phenyl-1,2,4-thiadiazolidin-2-yl)methyl)benzamide], the inhibition at 10 µM worked out at 42%.

These data come from US7279576B2 (Deciphera Pharmaceuticals, LLC, priority 2002, dated 2007).
